The values below come from ChEMBL document CHEMBL3507680, “University of Dundee, Gates Library screen for HepG2 cell viability”.

Structures are written as SMILES.

The data set in a line: Human HepG2 cell viability assay in 384 well format. It counts as toxicity, cell-based. Set-up: dose 125 nL, time 70.5 hour; cytotoxicity at 70.5 h: concentration not given beside the values. As to conditions: HepG2 cells, read-out: Inhibition.
Turning to `O=C1[C@H]2CN(Cc3ccco3)C[C@H]2CN1c1cncnc1`, the cytotoxicity at 70.5 h is -5.56%.
Turning to `COc1ccccc1OC1CN(C(=O)Cc2c(C)nc3ccccn23)C1`, the cytotoxicity at 70.5 h came out at 2.44%.
As for `O=C(Cc1ccsc1)NCCc1ccoc1`, the cytotoxicity at 70.5 h was -8.57%.
`O=C(O)CCC(=O)N1CCC(c2noc3cc(F)ccc23)CC1`: the cytotoxicity at 70.5 h was -10.8%.
For the compound `COC(=O)c1cc(C(=O)N2CCc3ccc(F)cc3C2C)ccn1` (configuration not stated), the cytotoxicity at 70.5 h is -0.61%.
For `Cc1cnn(CC2CCCN2CC(=O)N(C)Cc2cnn(C)c2)c1` (configuration not stated), the cytotoxicity at 70.5 h is -1.69%.
The result for `CCC(C)c1ccc(NC(=O)C2CCN(C(=O)N(C)C)CC2)cc1` (configuration not stated) reads -4.2%; that for `CC(C)[C@H]1CN(CCS(C)(=O)=O)C[C@@H]1NC(=O)c1ccc(=O)[nH]c1`, -3.99%; that for `CCC(Nc1nnnn1-c1ccccc1)C(=O)Nc1nc(C)cs1` (configuration not stated), -12.4%.
The result for `CC(C)c1nc(C2CCCN2CC(=O)N2CCNC2=O)no1` (configuration not stated) reads -3.44%.
For `Cc1nn(-c2ccc(C(=O)O)cc2)c2c1C(C(F)(F)F)SCC(=O)N2` (configuration not stated), the cytotoxicity at 70.5 h is -5.65%.
`CCOC(=O)C1(Cc2cccc(OC)c2)CCCN(Cc2ncc[nH]2)C1` (configuration not stated): the cytotoxicity at 70.5 h is 22%.
The result for `O=C(c1ccc[nH]1)N1Cc2nccn2CC(COc2cccnc2)C1` (configuration not stated) reads 18.1%; that for `Cc1ccc(OCC(=O)N2C[C@@H]3CN(C)CCO[C@@H]3C2)cc1`, -7.41%.
Regarding `O=C(C1CC2(CCNCC2)CN1)N1CCN(c2ccccc2)CC1` (configuration not stated), the cytotoxicity at 70.5 h came to 14.5%.
`N#Cc1cc(F)c(NCCc2ccc(S(N)(=O)=O)cc2)c(F)c1`: the cytotoxicity at 70.5 h is -2.35%.
With `CCOCCCn1c(NC(=O)c2scnc2C)nc2ccccc21` the figure was 30.8%; with `Cc1cc(CN2CCN(C(=O)NCc3csc(C)n3)CC2)no1`, 17.1%.
With `Cc1ccc(C(=O)NCc2cccnc2-n2cncn2)cc1S(C)(=O)=O` the figure was 17.5%; with `O=C(Nc1cccnc1-n1cc(Cl)cn1)C1CC1`, -27.5%; with `Nc1nnc(SCc2cc(=O)n3c4c(sc3n2)CCCC4)s1`, -8.05%.
As to `CCCC1COCCN1Cc1ccc(C(=O)O)cc1` (configuration not stated), the cytotoxicity at 70.5 h was -4.7%.
With `COc1ccc(COCC(=O)N2CCN(CC(C)(C)O)CC2)cc1` the figure was -0.338%.
With `O=C(Cn1c(C(F)F)cc2cccnc21)NC1CCCC1` the figure was -2.74%.
In the case of `Cc1nc(CN2CCN(C(=O)CCc3cccc(Cl)c3)CC2)no1`, the cytotoxicity at 70.5 h was 13.5%.
Consider `COCCN1C(=O)CCC12CCN(C(=O)CNC(C)=O)CC2`, for which the cytotoxicity at 70.5 h is -8.47%.
Regarding `Cc1nc(-c2ccc(S(=O)(=O)N3CCSCC3)cc2)co1`, the cytotoxicity at 70.5 h was -5.93%.
As for `CCOC(=O)C(C)NC(=O)CCc1ccc(F)cc1` (configuration not stated), the cytotoxicity at 70.5 h came to 1.35%.
As for `CN(Cc1cnn(C)c1)C1CCCN(Cc2noc(C3CC3)n2)C1` (configuration not stated), the cytotoxicity at 70.5 h is 50.1%.
With `CC(C)N(C)Cc1cncc2c1CCN(CC1CC1)C2` the figure was 15.2%; with `OC1(CN2CCN(c3cccc(C(F)(F)F)c3)CC2)CNCCOC1` (configuration not stated), -12%; with `CCN(C)S(=O)(=O)N(CC)Cc1cccc(-c2ccncc2)c1`, -4.01%.
With `CN(C(=O)c1ccnn1C)[C@@H]1CCC[C@@H](Oc2ccccc2)[C@@H]1O` the figure was -3.62%; with `CS(=O)(=O)N[C@@H]1CCN(Cc2cccs2)[C@H]1Cc1cccnc1`, -18.1%.
As for `COc1cc2c(cc1-c1nc3c(cnn3C(C)C(C)C)[nH]1)OCO2` (configuration not stated), the cytotoxicity at 70.5 h is -0.404%.
For `COc1ccccc1-c1noc(CNc2ccc(F)cc2OCCO)n1`, the cytotoxicity at 70.5 h worked out at 9.78%.
For the compound `CC(C)C(C)NC(=O)c1cc(Br)c2c(c1)OCCO2` (configuration not stated), the cytotoxicity at 70.5 h is -4.14%.
As to `COc1ccc(CN2C[C@@H]3CC[C@H](C2)N(S(C)(=O)=O)C3)cc1`, the cytotoxicity at 70.5 h is -7.94%.
Consider `CNC(=O)CCCNCc1c(C)nn(C)c1N(C)C`, for which the cytotoxicity at 70.5 h is -1.74%.
With `COc1cccc(-c2cccc(N3CCC(N[C@@H]4CCOC4)CC3)c2)c1`, the cytotoxicity at 70.5 h was found to be 2.44%.
As for `CCc1cnc(CN(C)C(=O)NC2CCN(C)C2=O)s1` (configuration not stated), the cytotoxicity at 70.5 h is -7.59%.
Turning to `CCc1nnc2n1CCN(C(=O)c1csc(-c3cnn(C)c3)n1)C2`, the cytotoxicity at 70.5 h is -6.07%.
Take `Cc1cccc(-c2nc(CN3CCc4cnc(C)nc4C3)no2)c1`: the cytotoxicity at 70.5 h was -21.3%.
Take `O=C(NCC(=O)N1CCCCC1)c1ccoc1`: the cytotoxicity at 70.5 h is -7.84%.
In the case of `CC(=O)c1sc(Nc2ccc(Cl)cn2)nc1C`, the cytotoxicity at 70.5 h stood at 31.3%.
The result for `O=C(O)CNC(=O)Cc1csc(-c2ccccc2F)n1` reads 18.6%; that for `CN(c1nccc(-c2cnc3sccn3c2=O)n1)C1CCCCC1`, -3.44%; that for `CC(C)c1nccn1-c1nccnc1C1CCCN1Cc1ccccc1` (configuration not stated), -6.32%.
The result for `CC(C)C(O)CCNC(=O)Nc1cc(F)ccc1-n1cccn1` (configuration not stated) reads 14.9%.
For the compound `O=C(N1CCOCC1)N1C(CN2CCOCC2)[C@]2(O)CC[C@H]1CC2` (some centres not stated), the cytotoxicity at 70.5 h was 3.03%.
Turning to `CC(C(=O)N1CCCN(Cc2ccc(C#N)cc2)CC1)n1cncn1` (configuration not stated), the cytotoxicity at 70.5 h is -1.82%.
With `NC(=O)CN(CC(=O)NCCc1c(F)cccc1F)C1CCCC1` the figure was 23.5%; with `Cc1cccc(C(=O)N2CCCC[C@]3(C)NC(=O)CCC[C@H]23)n1`, -8.97%; with `Cc1cc(C(=O)N2CCC(n3nc(C)cc3C)C2)c2ccc(F)cc2n1` (configuration not stated), -9.21%.
On to `CCCc1cc(CNc2cc(CCC)nc3ccnn23)on1`, for which the cytotoxicity at 70.5 h is 13.7%.
For `CN(C)Cc1ccc(C(=O)N2CCCC(COc3ccc(F)cc3)C2)o1` (configuration not stated), the cytotoxicity at 70.5 h was -5.29%.
On to `CCC(CNC(=O)c1ccc(=O)[nH]n1)N1CCc2ccccc2C1` (configuration not stated), for which the cytotoxicity at 70.5 h was -10.3%.
Regarding `CCc1cc(C(F)(F)F)c2c(C3CCCN(C(=O)COC)C3)noc2n1` (configuration not stated), the cytotoxicity at 70.5 h is -4.44%.
With `COC(=O)c1cccn1C1CCN(C(=O)c2cn[nH]c2C)CC1` the figure was -1.46%.
Turning to `O=C(C1CCCO1)N1CCCn2c(nnc2Cn2cccc2)C1` (configuration not stated), the cytotoxicity at 70.5 h was -11.4%.
With `O=C(NCCOc1ccccc1)Nc1cc(C(F)(F)F)c[nH]c1=O` the figure was -1.52%; with `CC(=O)N1CCn2cc(CNC(=O)c3cccn3C)nc2C1`, -10.7%; with `CC(C)c1noc(CCCC(=O)N2CCN(Cc3ccccn3)CC2)n1`, -11.6%.
The result for `Cc1ccc2nc(C(=O)N3CC(c4cccnc4)C3)cn2c1` reads -6.09%; that for `Cc1cc(CN2CC[C@H]3C[C@H](c4nc(C5CC5)cs4)O[C@@H]3C2)no1`, -4.1%.
In the case of `CN(C)C(=O)c1ccc(C2CCCN2C(=O)c2ccccc2N(C)C)s1` (configuration not stated), the cytotoxicity at 70.5 h was -1.33%.
On to `CCN(C1CCS(=O)(=O)C1)S(=O)(=O)c1cccc2cc(C)cnc12` (configuration not stated), for which the cytotoxicity at 70.5 h stood at 2.06%.
Regarding `COc1ccc(C(C)NCc2cscn2)cc1Cn1cccn1` (configuration not stated), the cytotoxicity at 70.5 h is -7.35%.
With `CCOc1ncnc2c1CCN(C(=O)CN(C)C)CC2` the figure was 0.621%; with `CC(C)[C@@H]1CN(c2ccc(F)cn2)C[C@H]1NS(C)(=O)=O`, 12.1%.
For the compound `Cc1cc(C)nc(N2CCCC(c3nccn3CCCN(C)C)C2)c1` (configuration not stated), the cytotoxicity at 70.5 h was -13.7%.
With `NC(=O)c1cnc(NC2CCN(c3ccccn3)CC2)c(Cl)c1` the figure was -6.48%; with `CCCn1cc(S(=O)(=O)N[C@H]2CN(CC(N)=O)C[C@@H]2C2CC2)cn1`, -9.29%; with `CC[C@H]1COCCN1C(=O)CCCn1nnc(-c2ccc(F)cc2)n1`, -1.69%.
With `C=C(C)CN1CCC(C(=O)c2cc(F)ccc2F)CC1` the figure was 0.664%; with `COc1cccc(CCC2CCCN(C(=O)c3ccc(OC)o3)C2)c1` (configuration not stated), -3.25%; with `OC1(Cn2ccc3ncccc32)CCN(Cc2ccccn2)CC1`, 24.4%.
As to `CN(C)CCN1CC2(CCN(C(=O)c3cnccn3)CC2)OC1=O`, the cytotoxicity at 70.5 h was -2.71%.
Consider `COC(=O)C1=NOC(Cc2cc(OC)c3c(c2)OCO3)C1` (configuration not stated), for which the cytotoxicity at 70.5 h is -20.2%.
With `O=C1COc2ccc(C(=O)NS(=O)(=O)c3ccc(F)cc3F)cc2N1`, the cytotoxicity at 70.5 h was -0.102%.
As to `O=C(c1cccnc1)N1CCC(Oc2cccc(C(F)(F)F)c2)CC1`, the cytotoxicity at 70.5 h is -4.72%.
The result for `CSC(C)C(=O)NCc1ccnc(N2CCN(C)CC2)c1` (configuration not stated) reads -7.04%.
For `O=C(c1cccnc1N1CCCC1)N1CCOC(c2ccccc2)C1` (configuration not stated), the cytotoxicity at 70.5 h was -2.27%.
The result for `CN(C)C(=O)N1C[C@@H]2CC[C@H](C1)N(Cc1nnc(-c3ccco3)o1)C2` reads 10.9%; that for `CC(NC(=O)c1cc(-c2cccc(Cl)c2)no1)C(=O)N1CCCC1` (configuration not stated), -10.6%.
The result for `Cc1noc([C@@]23CCO[C@@H]2CCN(C(=O)C2CCOCC2)C3)n1` reads 4.56%; that for `Cc1cccc(C(=O)N2C[C@@H]3OCCN(C(C)C)[C@@H]3C2)n1`, -0.427%.
In the case of `CN1[C@H]2CC[C@@H]1CN(C(=O)CCc1csc(N)n1)CC2`, the cytotoxicity at 70.5 h is -11.5%.
For `COCCNC(=O)[C@@H]1CC[C@@H]2[C@@H](CCN2c2ncc(F)cn2)O1`, the cytotoxicity at 70.5 h is -3.55%.
With `O=C(Cc1csc(-c2ccccc2Cl)n1)NCc1cccc(C(=O)O)c1` the figure was -18.1%; with `Cc1nnc(N2C[C@H](Oc3ccccn3)[C@H]3OCCC[C@H]32)s1`, 8.06%; with `O=C1CCC2(CCCN(C(=O)c3ncc[nH]3)C2)CN1CCc1c[nH]cn1` (configuration not stated), 13.6%.
As for `c1ccc(CN2CCC(NCCSc3cnn[nH]3)CC2)cc1`, the cytotoxicity at 70.5 h is 2.48%.
Take `Cc1cc(CN2CCOC(CN(C)c3cccnn3)C2)no1` (configuration not stated): the cytotoxicity at 70.5 h is -11.5%.
The result for `CN(C)C(Cn1ccnc1-c1nccn1C)c1ccccc1Cl` (configuration not stated) reads -5.92%; that for `CNS(=O)(=O)c1ccc(CNC(=O)C2CCCO2)cc1` (configuration not stated), 27.2%.
Take `Fc1ccc(CNC2CCN(CCc3ccncc3)CC2)cc1F`: the cytotoxicity at 70.5 h is -3.84%.
